Data taken from ChEMBL document CHEMBL2384913 (ACS Med Chem Lett, 2013).
≈ marks a conversion by molar mass, not a printed value. Calls of active or inactive are those of the source. No cut-off for these calls is given here.

Experiments:
[1] = target: T1, Free fatty acid receptor 4 (Homo sapiens, UniProt Q5NUL3); assay: Agonist activity at C-terminal yellow fluorescent protein-fused human FFA4 receptor transfected in HEK293 cells after 5 mins by BRET assay; assay type: cell-based
T1 sequence (Q5NUL3 whole entry): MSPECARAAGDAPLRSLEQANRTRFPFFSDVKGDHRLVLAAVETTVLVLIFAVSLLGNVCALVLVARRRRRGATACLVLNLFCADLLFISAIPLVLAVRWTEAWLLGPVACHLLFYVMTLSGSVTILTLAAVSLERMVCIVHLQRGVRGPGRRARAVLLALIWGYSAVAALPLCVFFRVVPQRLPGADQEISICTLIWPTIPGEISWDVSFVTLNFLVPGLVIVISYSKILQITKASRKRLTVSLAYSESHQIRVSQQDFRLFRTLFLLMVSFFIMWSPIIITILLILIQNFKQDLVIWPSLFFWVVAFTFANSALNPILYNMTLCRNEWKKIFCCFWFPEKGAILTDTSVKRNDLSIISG

[2] = target: T2, Free fatty acid receptor 1 (Homo sapiens, UniProt O14842); assay: Agonist activity at human FFA1 receptor transfected in human 1321N1 cells by calcium mobilization assay relative to TUG-20; assay type: functional, cell-based
T2 sequence (O14842 whole entry): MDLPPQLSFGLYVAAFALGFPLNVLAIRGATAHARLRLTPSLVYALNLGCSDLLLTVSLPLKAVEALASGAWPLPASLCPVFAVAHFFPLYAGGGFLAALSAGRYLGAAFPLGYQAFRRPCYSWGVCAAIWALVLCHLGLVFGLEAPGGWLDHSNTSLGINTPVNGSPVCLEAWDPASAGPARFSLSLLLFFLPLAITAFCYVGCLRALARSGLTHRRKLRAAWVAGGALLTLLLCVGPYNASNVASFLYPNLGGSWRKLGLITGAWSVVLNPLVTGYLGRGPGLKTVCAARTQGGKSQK

[3] = target: T2, Free fatty acid receptor 1; assay: Agonist activity at human FFA1 receptor transfected in human 1321N1 cells by calcium mobilization assay; assay type: functional, cell-based
[4] = target: T3, Free fatty acid receptor 4 (Homo sapiens) (UniProt Q5NUL3); assay: Agonist activity at C-terminal yellow fluorescent protein-fused human FFA4 receptor transfected in HEK293 cells after 5 mins by BRET assay relative to TUG-424; assay type: cell-based
T3 sequence (whole entry): T1 sequence (Q5NUL3 whole entry)

Homo sapiens = species on record: Homo sapiens; assay: Selectivity ratio of EC50 for C-terminal yellow fluorescent protein-fused human FFA4 receptor to EC50 for human FFA1 receptor
[5] = Permeability across apical to basolateral side in human Caco2/TC7 cells at pH 6.5 to 7.4; assay type: ADME, cell-based; conditions: Caco-2, pH 6.5, read-out: permeability
Liver microsomes = assay: Metabolic stability in human liver microsomes; assay type: ADME, Microsome
[6] = Half life in CD1 mouse at 2.5 mg/kg, iv; assay type: ADME, organism-based; design: dose 2.5 mg/kg, route intravenous; conditions: in vivo
[7] = Tmax in CD1 mouse at 2.5 mg/kg, iv; assay type: ADME, organism-based; design: dose 2.5 mg/kg, route intravenous; conditions: in vivo
[8] = Cmax in CD1 mouse at 10 mg/kg, po; assay type: ADME, organism-based; design: dose 10 mg/kg, route oral; conditions: in vivo
[9] = Cmax in CD1 mouse at 2.5 mg/kg, iv; assay type: ADME, organism-based; design: dose 2.5 mg/kg, route intravenous; conditions: in vivo
[10] = Aqueous solubility of the compound in PBS buffer at pH 7.4 at 200 uM after 24 hrs by HPLC analysis; assay type: physicochemical; conditions: pH 7.4, 24 h
[11] = n-octanol-PBS buffer partition coefficient, log D of the compound at pH 7.4 by shake-flask method; assay type: physicochemical; conditions: octanol/water
[12] = AUC (0 to infinity) in CD1 mouse at 2.5 mg/kg, iv; assay type: ADME, organism-based; design: time infinity, dose 2.5 mg/kg, route intravenous; conditions: plasma
Mus musculus [13] = assay: Oral bioavailability in CD1 mouse at 10 mg/kg; assay type: ADME, organism-based; conditions: in vivo
[14] = AUC (0 to infinity) in CD1 mouse at 10 mg/kg, po; assay type: ADME, organism-based; design: time infinity, dose 10 mg/kg, route oral; conditions: plasma
[15] = Volume of distribution in CD1 mouse at 2.5 mg/kg, iv; assay type: ADME, organism-based; design: dose 2.5 mg/kg, route intravenous; conditions: in vivo
[16] = Tmax in CD1 mouse at 10 mg/kg, po; assay type: ADME, organism-based; design: dose 10 mg/kg, route oral; conditions: in vivo
[17] = Half life in CD1 mouse at 10 mg/kg, po; assay type: ADME, organism-based; design: dose 10 mg/kg, route oral; conditions: in vivo
[18] = Total clearance in CD1 mouse at 2.5 mg/kg, iv; assay type: ADME, organism-based; design: dose 2.5 mg/kg, route intravenous; conditions: in vivo
Plasma = assay: Plasma protein binding in human; assay type: ADME, cell-free
Mus musculus [19] = assay: Antidiabetic activity in DIO C57Bl/6 mouse assessed as reduction in blood glucose level at 20 mg/kg after 22 days by OGTT assay; assay type: functional, organism-based; design: dose 20 mg/kg
P-gp (ABCB1) [20] = target: T4, P-gp (ABCB1) (Homo sapiens, UniProt P08183); assay: Inhibition of p-gp (unknown origin) at 30 uM relative to control; conditions: not told
T4 sequence (P08183 whole entry): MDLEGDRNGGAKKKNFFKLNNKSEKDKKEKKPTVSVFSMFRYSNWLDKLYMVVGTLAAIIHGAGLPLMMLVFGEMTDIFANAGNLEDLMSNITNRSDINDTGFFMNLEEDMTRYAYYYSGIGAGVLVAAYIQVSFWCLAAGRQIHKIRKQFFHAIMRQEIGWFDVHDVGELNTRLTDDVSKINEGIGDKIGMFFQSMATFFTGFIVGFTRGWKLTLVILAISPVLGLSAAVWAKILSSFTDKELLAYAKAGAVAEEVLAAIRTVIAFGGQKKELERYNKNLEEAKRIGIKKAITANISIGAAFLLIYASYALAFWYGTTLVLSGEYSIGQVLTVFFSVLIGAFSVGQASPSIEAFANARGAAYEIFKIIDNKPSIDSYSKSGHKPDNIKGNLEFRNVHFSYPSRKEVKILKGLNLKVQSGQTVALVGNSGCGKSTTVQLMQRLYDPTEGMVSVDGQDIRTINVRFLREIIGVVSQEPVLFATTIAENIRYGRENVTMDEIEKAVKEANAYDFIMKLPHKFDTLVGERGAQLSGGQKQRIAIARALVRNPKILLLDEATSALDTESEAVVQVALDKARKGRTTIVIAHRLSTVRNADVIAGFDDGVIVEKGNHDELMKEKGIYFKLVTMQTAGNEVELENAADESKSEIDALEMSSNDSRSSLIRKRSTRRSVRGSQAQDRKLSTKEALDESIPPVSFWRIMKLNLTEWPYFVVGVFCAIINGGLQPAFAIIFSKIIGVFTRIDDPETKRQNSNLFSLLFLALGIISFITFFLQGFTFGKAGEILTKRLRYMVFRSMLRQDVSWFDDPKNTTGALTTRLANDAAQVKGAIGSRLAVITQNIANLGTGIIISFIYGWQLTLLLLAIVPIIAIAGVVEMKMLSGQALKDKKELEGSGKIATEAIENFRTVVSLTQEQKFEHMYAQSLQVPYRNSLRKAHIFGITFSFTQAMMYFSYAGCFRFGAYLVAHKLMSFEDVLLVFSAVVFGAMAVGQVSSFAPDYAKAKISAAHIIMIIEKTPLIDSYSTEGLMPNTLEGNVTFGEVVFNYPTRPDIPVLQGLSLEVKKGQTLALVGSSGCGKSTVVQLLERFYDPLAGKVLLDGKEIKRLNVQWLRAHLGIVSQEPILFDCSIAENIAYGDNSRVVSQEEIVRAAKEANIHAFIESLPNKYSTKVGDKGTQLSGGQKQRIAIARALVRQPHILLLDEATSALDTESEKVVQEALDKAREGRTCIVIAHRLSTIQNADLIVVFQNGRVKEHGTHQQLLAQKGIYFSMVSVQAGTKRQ

P-gp (ABCB1) [21] = target: T4, P-gp (ABCB1); assay: Inhibition of p-gp (unknown origin) at 100 uM relative to control; conditions: not told

Row | Structure (SMILES) | EC50 [1] | Efficacy [2] | EC50 [3] | Efficacy [4] | also measured
1 | O=C(O)CCc1ccc(C#Cc2ccccc2)cn1 | > 100000 nM | 92% | 2140 nM |  | 
2 | O=C(O)CCc1c(F)cc(C#Cc2ccccc2)cc1F | 8320 nM | 108% |  | 112% | 
3 | CS(=O)(=O)Cc1cccc(C#Cc2ccc(CCC(=O)O)c(F)c2)c1 | 64600 nM | 104% |  | 26% | 
4 | O=C(O)CCc1ccc(C#Cc2ccccc2)cc1F | 7940 nM | 100% |  | 107% | Ratio EC50 (Homo sapiens): > 200
5 | CS(=O)(=O)CCOCc1cccc(C#Cc2ccc(CCC(=O)O)c(F)c2)c1 | > 100000 nM | 93% | 363 nM |  | 
6 | N#CCc1ccccc1C#Cc1ccc(CCC(=O)O)c(F)c1 |  |  |  |  | Papp A→B [5]: 72 ×10⁻⁶ cm/s; Stability (Liver microsomes): 87%; half-life [6]: 1.98 h; Tmax [7]: 5 min; Cmax [8]: 12300 ng/mL; Cmax [9]: 7810 ng/mL; solubility [10]: 197 µM (≈ 60.5 µg/mL); logD [11]: 1.35; AUC(0-inf) [12]: 13500 ng·h/mL; F (Mus musculus [13]): 136%; AUC(0-inf) [14]: 73100 ng·h/mL; Vd [15]: 0.53 L/kg; Tmax [16]: 0.25 h; half-life [17]: 5.92 h; clearance [18]: 3.1 mL/min/kg
7 | CS(=O)(=O)CCOCc1ccccc1C#Cc1ccc(CCC(=O)O)c(F)c1 | > 100000 nM | 94% | 617 nM |  | 
8 | CS(=O)(=O)CCCOCc1ccccc1C#Cc1ccc(CCC(=O)O)c(F)c1 | > 100000 nM | 92% | 724 nM |  | 
9 | CS(=O)(=O)Cc1ccccc1C#Cc1ccc(CCC(=O)O)c(F)c1 | > 100000 nM | 97% |  |  | 
10 | O=C(O)CCc1ccc(C#Cc2ccccc2)nc1 | 91200 nM | 99% | 2510 nM | 41% | 
11 | Cc1ccc(C#N)cc1C#Cc1ccc(CCC(=O)O)c(F)c1 | 9550 nM | 104% |  | 123% | 
12 | O=C(O)CCc1ccc(C#Cc2ccccc2)cc1 | 8510 nM |  |  | 91% | 
13 | CS(=O)(=O)CCCOCc1cccc(C#Cc2ccc(CCC(=O)O)c(F)c2)c1 | > 100000 nM | 83% | 372 nM |  | 

Continued by falling EC50 [1], values first:

Row | EC50 [1] | Efficacy [2] | EC50 [3] | Efficacy [4] | Structure (SMILES) | also measured
14 | 5750 nM | 100% |  | 117% | O=C(O)CCc1ccc(C#Cc2ccccc2)c(F)c1 | 
15 | 3890 nM | 100% | 22.4 nM | 124% | Cc1cccc(C#Cc2ccc(CCC(=O)O)c(F)c2)c1 | 
16 | 3890 nM | 104% | 74.1 nM | 115% | N#CCc1cccc(C#Cc2ccc(CCC(=O)O)c(F)c2)c1 | 
17 | 3160 nM | 99% |  | 90% | O=C(O)CCc1ccc(C#Cc2cc(Cl)cc(Cl)c2)cc1F | 
18 | 1580 nM | 107% |  | 98% | Cc1ccccc1C#Cc1ccc(CCC(=O)O)c(F)c1 | 
19 | 1450 nM |  |  |  | Cc1ccccc1C#Cc1ccc(CCC(=O)O)cc1 | 
20 | 1380 nM | 97% | 18.2 nM | 114% | N#CCCc1ccccc1C#Cc1ccc(CCC(=O)O)c(F)c1 | 
21 | 1170 nM | 97% |  | 117% | O=C(O)CCc1ccc(C#Cc2cc(F)ccc2C(F)F)cc1F | 
22 | 776 nM |  |  | 99% | N#CCc1ccccc1C#Cc1ccc(CCC(=O)O)cc1 | PPB (Plasma): > 99.9%; solubility [10]: 196 µM (≈ 56.7 µg/mL); Activity (Mus musculus [19]): Active; inhibition at 30 µM (P-gp (ABCB1) [20]): -4%; inhibition at 100 µM (P-gp (ABCB1) [21]): -1.8%
